Consider 31 molecules from patent US8530504B2, “Pyrazolothiazole compound” (Eisai R&D Management Co., Ltd., priority 2009, dated 2013).

By IC50 is commonly meant the concentration at which inhibition is half-maximal.

The structures appear in SMILES notation.

The assay deals with human CRFR1 (Homo sapiens (Human), UniProt P34998). In words: CRFR1 Binding Test.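 Note: nonspecific binding was determined with a 4,000-fold excess of unlabelled sauvagine and subtracted from every reading.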 To be noted: competition with 100 pM 125I-CRF, SPA method, membrane fraction of human CRFR1-expressing HEK293 cells; read-out: CRF1 receptor binding capacity IC50.
Chain of human CRFR1 (P34998 24-415): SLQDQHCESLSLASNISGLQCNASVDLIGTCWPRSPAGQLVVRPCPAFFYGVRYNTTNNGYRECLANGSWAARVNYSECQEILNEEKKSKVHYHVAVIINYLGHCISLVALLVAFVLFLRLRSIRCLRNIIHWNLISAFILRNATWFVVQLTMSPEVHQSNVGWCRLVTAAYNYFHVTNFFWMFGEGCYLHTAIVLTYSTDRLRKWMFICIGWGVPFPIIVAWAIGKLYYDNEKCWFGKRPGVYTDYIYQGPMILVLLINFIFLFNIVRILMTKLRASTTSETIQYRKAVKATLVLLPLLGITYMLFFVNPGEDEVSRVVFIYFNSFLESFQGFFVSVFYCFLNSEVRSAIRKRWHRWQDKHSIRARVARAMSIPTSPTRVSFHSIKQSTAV
`COCc1cc(OC)c(-c2c(SC)sc3c(N(CC4CCOCC4)CC4CC4)c(C)nn23)c(OC)c1` [Example 1, N-(Cyclopropylmethyl)-3-[2,6-dimethoxy-4-(methoxymethyl)phenyl]-6-methyl-2-(methylthio)-N-(tetrahydro-2H-pyran-4-ylmethyl)pyrazolo[5,1-b][1,3]thiazole-7-amine]: the concentration for half-maximal inhibition (IC50) was 93 nM. Regarding `CCN(c1c(OC)nn2c(-c3c(OC)cc(COC)cc3OC)csc12)C1CCCC1` [Example 66, N-Cyclopentyl-3-[2,6-dimethoxy-4-(methoxymethyl)phenyl]-N-ethyl-6-methoxypyrazolo[5,1-b][1,3]thiazole-7-amine], the IC50 is 26 nM. Then `CCCCN(c1c(SC)nn2c(-c3c(OC)cc(COC)cc3OC)csc12)C1CCOCC1` [Example 106, N-Butyl-3-[2,6-dimethoxy-4-(methoxymethyl)phenyl]-6-(methylthio)-N-(tetrahydro-2H-pyran-4-yl)pyrazolo[5,1-b][1,3]thiazole-7-amine], with 83 nM. Turning to `COCc1cc(OC)c(-c2csc3c(N(CCCF)c4cccnc4)c(OC)nn23)c(OC)c1` [Example 88, 3-[2,6-Dimethoxy-4-(methoxymethyl)phenyl]-N-(3-fluoropropyl)-6-methoxy-N-pyridin-3-ylpyrazolo[5,1-b][1,3]thiazole-7-amine], the half-inhibitory concentration (IC50) came out at 53 nM. Then `CCCCN(c1c(OC)nn2c(-c3c(OC)cc(C=O)cc3OC)csc12)C1CCOCC1` [Example 103], with 101 nM; and `COCCCN(c1c(OC)nn2c(-c3c(OC)cc(COC)cc3OC)csc12)C1CCCC1` [Example 63, N-Cyclopentyl-3-[2,6-dimethoxy-4-(methoxymethyl)phenyl]-6-methoxy-N-(3-methoxypropyl)pyrazolo[5,1-b][1,3]thiazole-7-amine], with 61 nM. The value for `COCc1cc(OC)c(-c2csc3c(N(CC4CCC4)C4CCOC4)c(OC)nn23)c(OC)c1` (stereo not shown) [Example 29, N-(Cyclobutylmethyl)-3-[2,6-dimethoxy-4-(methoxymethyl)phenyl]-6-methoxy-N-(tetrahydrofuran-3-yl)pyrazolo[5,1-b][1,3]thiazole-7-amine] was 45 nM; that for `COCc1cc(OC)c(-c2csc3c(N(CC4CCC4)CC4C5COCC54)c(OC)nn23)c(OC)c1` (single isomer, unassigned; diastereomer 1) [Example 98, N-(Cyclobutylmethyl)-3-[2,6-dimethoxy-4-(methoxymethyl)phenyl]-6-methoxy-N-[3-oxabicyclo[3.1.0]hex-6-ylmethyl]-pyrazolo[5,1-b][1,3]thiazole-7-amine (diastereomer 1)] was 88 nM.

Regarding `COCc1cc(OC)c(-c2csc3c(N(CC(C)C)C4CCOC4)c(OC)nn23)c(OC)c1` (stereo not shown) [Example 43, [3-(2,6-Dimethoxy-4-methoxymethylphenyl)-6-methoxy-pyrazolo[5,1-b][1,3]thiazol-7-yl]-isobutyl-(tetrahydrofuran-3-yl)-amine], the 50% inhibitory concentration (IC50) worked out at 45 nM. As to `CCN(c1c(OC)nn2c(-c3c(OC)cc(C4CC4)cc3OC)csc12)C1CCOCC1` [Example 64, 3-(4-Cyclopropyl-2,6-dimethoxyphenyl)-N-ethyl-6-methoxy-N-(tetrahydro-2H-pyran-4-yl)pyrazolo[5,1-b][1,3]thiazole-7-amine], the 50% inhibitory concentration (IC50) was 61 nM. The value for `CCCCN(CCOC)c1c(OC)nn2c(-c3c(OC)cc(COCC)cc3OC)csc12` [Example 41, N-Butyl-3-[4-(ethoxymethyl)-2,6-dimethoxyphenyl]-6-methoxy-N-(2-methoxyethyl)pyrazolo[5,1-b][1,3]thiazole-7-amine] was 25 nM; that for `CCOCc1cc(OC)c(-c2csc3c(N(CCOC)CC4CC4)c(OC)nn23)c(OC)c1` [Example 40, N-(Cyclopropylmethyl)-3-[4-(ethoxymethyl)-2,6-dimethoxyphenyl]-6-methoxy-N-(2-methoxyethyl)pyrazolo[5,1-b][1,3]thiazole-7-amine] was 32 nM. As to `COc1cc(C)cc(OC)c1-c1csc2c(N(CC3CC3)CC3CCOC3)c(OC)nn12` (stereo not shown) [Example 26, N-(Cyclopropylmethyl)-3-(2,6-dimethoxy-4-methylphenyl)-6-methoxy-N-(tetrahydrofuran-3-ylmethyl)pyrazolo[5,1-b][1,3]thiazole-7-amine], the 50% inhibitory concentration (IC50) was determined as 33 nM. Regarding `COc1cc(C(C)OC)cc(OC)c1-c1csc2c(N(CC3CC3)CC3CCOC3)c(OC)nn12` (stereo not shown) [Example 19, N-(Cyclopropylmethyl)-3-[2,6-dimethoxy-4-(1-methoxyethyl)phenyl]-6-methoxy-N-(tetrahydrofuran-3-ylmethyl)pyrazolo[5,1-b][1,3]thiazole-7-amine], the half-inhibitory concentration (IC50) was 52 nM. On to `COCc1cc(OC)c(-c2csc3c(N(CCCF)Cc4cccnc4)c(OC)nn23)c(OC)c1` [Example 71, 3-[2,6-Dimethoxy-4-(methoxymethyl)phenyl]-N-(3-fluoropropyl)-6-methoxy-N-(pyridin-3-ylmethyl)-pyrazolo[5,1-b][1,3]thiazole-7-amine], for which the IC50 was 58 nM. Then `COc1cc(C#N)cc(OC)c1-c1csc2c(N(CC3CC3)CC3C4COCC43)c(OC)nn12` (single isomer, unassigned; diastereomer 1) [Example 100], with 89 nM; and `CCCN(CC1CCOC1)c1c(OCC)nn2c(-c3c(OC)cc(COC)cc3OC)csc12` (stereo not shown) [Example 84, 3-[2,6-Dimethoxy-4-(methoxymethyl)phenyl]-6-ethoxy-N-propyl-N-(tetrahydrofuran-3-ylmethyl)pyrazolo[5,1-b][1,3]thiazole-7-amine], with 51 nM; and `CCCN(CCC)c1c(OC)nn2c(-c3c(OC)cc(COC)cc3OC)csc12` [Example 24, 3-[2,6-Dimethoxy-4-(methoxymethyl)phenyl]-6-methoxy-N,N-dipropylpyrazolo[5,1-b][1,3]thiazole-7-amine], with 26 nM. The value for `CCOc1nn2c(-c3c(OC)cc(COC)cc3OC)csc2c1N(CC1CC1)C1CCOCC1` [Example 81, N-(Cyclopropylmethyl)-3-[2,6-dimethoxy-4-(methoxymethyl)phenyl]-6-ethoxy-N-(tetrahydro-2H-pyran-4-yl)-pyrazolo[5,1-b][1,3]thiazole-7-amine] was 89 nM; that for `COCCN(c1c(OC)nn2c(-c3c(OC)cc(COC)cc3OC)csc12)C1CCCC1` [Example 53, N-Cyclopentyl-3-[2,6-dimethoxy-4-(methoxymethyl)phenyl]-6-methoxy-N-(2-methoxyethyl)pyrazolo[5,1-b][1,3]thiazole-7-amine] was 18 nM.

With `COCCN(c1c(OC)nn2c(-c3c(OC)cc(C#N)cc3OC)csc12)C1CCCC1` [Example 74, 4-{7-[Cyclopentyl(2-methoxyethyl)amino]-6-methoxypyrazolo[5,1-b][1,3]thiazol-3-yl}-3,5-dimethoxybenzonitrile], the half-maximal inhibitory concentration (IC50) is 52 nM.

With `CCCCN(c1c(OCC)nn2c(-c3c(OC)cc(COC)cc3OC)csc12)C1CCOCC1` [Example 82, N-Butyl-3-[2,6-dimethoxy-4-(methoxymethyl)phenyl]-6-ethoxy-N-(tetrahydro-2H-pyran-4-yl)-pyrazolo[5,1-b][1,3]thiazole-7-amine], the concentration for half-maximal inhibition (IC50) worked out at 63 nM. For the molecule `COCCN(CC(C)C)c1c(OC)nn2c(-c3c(OC)cc(COC)cc3OC)csc12` [Example 55, 3-[2,6-Dimethoxy-4-(methoxymethyl)phenyl]-N-isobutyl-6-methoxy-N-(2-methoxyethyl)pyrazolo[5,1-b][1,3]thiazole-7-amine], the IC50 is 19 nM. Then `CCCN(c1c(OC)nn2c(-c3c(OC)cc(C4CC4)cc3OC)csc12)C1CCOCC1` [Example 61, 3-(4-Cyclopropyl-2,6-dimethoxyphenyl)-6-methoxy-N-propyl-N-(tetrahydro-2H-pyran-4-yl)pyrazolo[5,1-b][1,3]thiazole-7-amine], with 39 nM. On to `CCCN(c1c(OC)nn2c(-c3c(OC)cc(COC)cc3OC)c(C)sc12)C1CCOCC1` [Example 7, [3-(2,6-Dimethoxy-4-methoxymethyl-phenyl)-6-methoxy-2-methyl-pyrazolo[5,1-b][1,3]thiazol-7-yl]-propyl-(tetrahydro-pyran-4-yl)-amine], for which the 50% inhibitory concentration (IC50) amounted to 94 nM. For `CCCN(c1c(OC)nn2c(-c3c(OC)cc(COC(C)C)cc3OC)csc12)C1CCOCC1` [Example 68, [3-(4-Isopropoxymethyl-2,6-dimethoxyphenyl)-6-methoxy-pyrazolo[5,1-b][1,3]thiazol-7-yl]-propyl-(tetrahydro-pyran-4-yl)-amine], the IC50 was 77 nM. The value for `COc1cc(C)cc(OC)c1-c1csc2c(N(CC3CC3)C3CCOCC3)c(OC)nn12` [Example 25, N-(Cyclopropylmethyl)-3-(2,6-dimethoxy-4-methylphenyl)-6-methoxy-N-(tetrahydro-2H-pyran-4-yl)pyrazolo[5,1-b][1,3]thiazole-7-amine] was 43 nM; that for `CCc1cc(OC)c(-c2csc3c(N(CC4CC4)CC4CCOC4)c(OC)nn23)c(OC)c1` (stereo not shown) [Example 23, Cyclopropylmethyl-[3-(4-ethyl-2,6-dimethoxy-phenyl)-6-methoxy-pyrazolo[5,1-b][1,3]thiazol-7-yl]-(tetrahydro-furan-3-ylmethyl)amine] was 44 nM; that for `COCCN(c1c(OC)nn2c(-c3c(OC)cc(COC)cc3OC)csc12)C1CCC1` [Example 56, N-Cyclobutyl-3-[2,6-dimethoxy-4-(methoxymethyl)phenyl]-6-methoxy-N-(2-methoxyethyl)pyrazolo[5,1-b][1,3]thiazole-7-amine] was 31 nM. Then `CCCN(c1cccnc1)c1c(OC)nn2c(-c3c(OC)cc(COC)cc3OC)csc12` [Example 87, 3-[2,6-Dimethoxy-4-(methoxymethyl)phenyl]-6-methoxy-N-propyl-N-pyridin-3-ylpyrazolo[5,1-b][1,3]thiazole-7-amine], with 36 nM; and `CCOc1nn2c(-c3c(OC)cc(COC)cc3OC)csc2c1N(CC1CCC1)C1CCOCC1` [Example 83, N-(Cyclobutylmethyl)-3-[2,6-dimethoxy-4-(methoxymethyl)phenyl]-6-ethoxy-N-(tetrahydro-2H-pyran-4-yl)-pyrazolo[5,1-b][1,3]thiazole-7-amine], with 47 nM.
